Test results taken from patent US6703420B1, “Amino-thio-acrylonitriles as MEK inhibitors” (Bristol-Myers Squibb Pharma Company, priority 1999, dated 2004).
Like-named read-outs stand apart in the source and are kept apart here.

How the values were obtained:
[1] = test system: ERK; details: fMLP- and LTB4-stimulated
[2] = test system: Cox-2
[3] = test system: MMP; details: IL-1b and TNF-a, fibroblasts; cited from earlier work
[4] = test system: b2 integrin; details: U0126 at 10 mM
[5] = test system: RAS-transformed cells
[6] = test system: neutrophils; details: U0126 at 10 mM; in response to IL-8 and LTB4
[7] = test system: human tumor cell lines
[8] = test system: ERK; details: PMA/ionomycin, Con A stimulation, antigen with costimulation; cited from earlier work
[9] = test system: freshly isolated human monocytes and THP-1 cells
[10] = test system: keratinocytes; details: keratinocytes stimulated with a variety of agents
[11] = test system: SMC; details: serum starved SMC
[12] = test system: neutrophils
[13] = test system: T cell; details: in response to TCR engagement; cited from earlier work
[14] = test system: activated MEK; details: cited from earlier work; for type of inhibition, comparative kinetic analysis: activated MEK
[15] = test system: keratinocyte; details: pituitary growth factor extract, primarily FGF
[16] = test system: Cox-2; details: LPA-stimulated rat mesangial cells; cited from earlier work
[17] = test system: ERK; details: agonists fMLP, IL-8, C5a and LTB4; cited from earlier work
[18] = test system: Swiss 3T3 cells; details: PDGF-stimulated Swiss 3T3 cells; cited from earlier work
[19] = test system: monocytes; details: LPS treatment of monocytes; cited from earlier work
[20] = test system: neutrophils, mast cells, or endothelial cells; details: opsonized zymosan, aggregation of high affinity IgG receptor, or thrombin, respectively; cited from earlier work
[21] = test system: RAS-transformed cells; details: cited from earlier work
[22] = test system: neutrophils; details: cited from earlier work
[23] = test system: T cells; details: cited from earlier work
[24] = test system: UM-SCC-1 cells; details: cited from earlier work
[25] = test system: HL-60 cells; details: cited from earlier work
[26] = test system: Cox-2; details: RAW 264.7 cells; cited from earlier work
[27] = test system: SMC (Smooth Muscle Cell); details: at concentrations which inhibit ERK activation; cited from earlier work
[28] = test system: neutrophils; details: in response to all agents (fMLP, IL-8, C5a, LTB4); cited from earlier work
[29] = test system: 5-lipoxygenase; details: HL-60 cells; cited from earlier work
[30] = test system: UM-SCC-1 and MDA-TV-138; details: controlled by EGF, TGFa and FGF; cited from earlier work

N#CC(=C(N)Sc1ccc(N)cc1)c1cccc(C(O)c2ccncc2)c1 (centres unmarked)
melting point: 146.5 to 147.5 °C

Cc1ccccc1C(C(C#N)=C(N)Sc1ccccc1N)c1ccc(Cl)cc1 (centres unmarked)
melting point: 63.5 to 72 °C

N#CC(=C(/N)Sc1ccccc1N)/C(C#N)=C(\N)Sc1ccccc1N [Example U0126]
ERK activation in neutrophils [1]: blocks ERK activation | Cox-2 induction ([2]; TPA-stimulated fibroblasts): inhibits Cox-2 induction | serum induction of the Cox-2 transcript ([2]; fibroblasts, serum): does not impede serum induction of the Cox-2 transcript | MMP induction [3]: block MMP induction | blunting of up regulation of b2 integrin on the cell surface [4]: 50% | cell growth under normal culture conditions ([5]; normal culture conditions): minimal effects on cell growth | growth of RAS-transformed cells in soft agar ([5]; soft agar): impede the growth | block of chemotaxis through a fibrin gel [6]: > 80% | growth of human tumor cell lines in soft agar [7]: can prevent cell growth in some cells, but not all | ERK activation in T cells [8]: prevents ERK activation | LPS-induced cytokine production [9]: inhibitable | arachidonic acid release [10]: block arachidonic acid release | prostaglandin and leukotriene synthesis [10]: block | PDGF-dependent growth [11]: prevents PDGF-dependent growth | NADPH-oxidase activity [12]: does not impair NADPH-oxidase activity | bacterial cell killing [12]: does not impair | IL-2 synthesis [13]: blocked | T cell activation and proliferation [13]: blocked | type of inhibition, comparative kinetic analysis [14]: non-competitive inhibitors of activated MEK | keratinocyte proliferation [15]: blocks keratinocyte proliferation

COc1cccc(-c2cc(=O)c3ccccc3o2)c1N [PD 098059]
Cox-2 induction [16]: inhibits Cox-2 induction | ERK activation in neutrophils [17]: blocked | thymidine incorporation into DNA [18]: blocks thymidine incorporation into DNA | cytokine production [19]: blocked | arachidonic acid release [20]: blocks arachidonic acid release | cell growth under normal culture conditions ([21]; normal culture conditions): minimal effects on cell growth | growth of RAS-transformed cells in soft agar ([21]; soft agar): impede the growth | superoxide anion production [22]: does not alter superoxide anion production | IL-2 production ([23]; anti-CD3 antibody with anti-CD28 or PMA): blocked IL-2 production | T cell proliferation ([23]; anti-CD3 antibody, reversed by IL-2): inhibit T cell proliferation | production of IL-4, IL-5 and IL-13 ([23]; similarly stimulated T cell cultures): enhanced production | TNFa, IL-3 GM-CSF, IFN-g, IL-6 and IL-10 production ([23]; stimulated T cells): blocked | cellular proliferation rate [24]: not affected | in vitro invasiveness through an extracellular matrix-coated porous filter [24]: blocked | fMLP-stimulated superoxide generation [25]: inhibited | LPS-induced Cox-2 expression [26]: partially blocked | PDGF-BB-dependent SMC chemotaxis [27]: prevents PDGF-BB-dependent SMC (Smooth Muscle Cell) chemotaxis | neutrophil chemotaxis [28]: blocks neutrophil chemotaxis | 5-lipoxygenase translocation from cytosol to nuclear membrane and activation (5-HETE production) [29]: inhibited | urokinase secretion [30]: reduce urokinase secretion | type of inhibition, comparative kinetic analysis [14]: non-competitive inhibitors of activated MEK | MEK activity [14]: inhibits MEK activity
